This is an account of results in PMC6271338, “Synthesis and Cytotoxic Evaluation of Alkoxylated Chalcones” (Molecules, 2014).

A word on the IC50: it is the concentration needed to halve the response being measured. A low value points to greater potency. A word on the CC50: it is the concentration that lowers cell viability or growth by half. The term melting point denotes the temperature of the solid-liquid transition.

Data set [1] has as its system MCF-7 cells. Kind of data set: In vitro anti-proliferative SRB assay, MCF-7. Format: cell-based, human. Conditions: for IC50: Homo sapiens, MCF7, increasing concentrations up to 30 μM, mean ± SD of at least three independent experiments; for SI (CC50 HMLE/IC50 MCF7) / SI (CC50 L02/IC50 MCF7): selectivity index; for SI (CC50 HMLE/IC50 MCF7): HMLE vs MCF7; for SI (CC50 L02/IC50 MCF7): L02 vs MCF7. (In general: The SRB assay estimates cell density from bound dye.)

The subject of data set [2] is A549 cells. Kind of data set: In vitro anti-proliferative SRB assay, A549. Conditions: for IC50: Homo sapiens, A549, increasing concentrations up to 30 μM, mean ± SD of at least three independent experiments; for SI (CC50 HMLE/IC50 A549) / SI (CC50 L02/IC50 A549): selectivity index; for SI (CC50 HMLE/IC50 A549): HMLE vs A549; for SI (CC50 L02/IC50 A549): L02 vs A549. In kind it is cell-based, human.

A short description of data set [3]: Cytotoxicity (SRB) against non-tumoral L02 cells. In kind it is cell-based, human. Conditions: human, L02 cells (non-tumoral human liver cell line); increasing concentrations up to 100 μM; mean ± SD of at least three independent experiments; read-out: Normal Human Cell Lines, CC50, L02.
For data set [4], the system named is L02 (a human liver cell line). Kind of data set: Cytotoxicity (SRB) against non-tumoral L02 cells. Format: cell-based. Conditions: L02 versus the five tumoral cell lines.
Data set [5] relates to HepG2 cells. Kind of data set: In vitro anti-proliferative SRB assay, HepG2. Format: cell-based, human. Conditions: for IC50: Homo sapiens, HepG2, increasing concentrations up to 30 μM, mean ± SD of at least three independent experiments; for SI (CC50 HMLE/IC50 HepG2) / SI (CC50 L02/IC50 HepG2): selectivity index; for SI (CC50 HMLE/IC50 HepG2): HMLE vs HepG2; for SI (CC50 L02/IC50 HepG2): L02 vs HepG2.

Data set [6] deals with five human cancer cell lines (HepG2, HeLa, MCF-7, A549 and SW1990). Kind of data set: In vitro anti-proliferative SRB assay, summary statements over the five-line panel. Format: cell-based. Conditions: most of their in vitro IC50 values against the five human cancer lines. The method, then: With a aim of identifying potential anticancer agents with enhanced levels of activity, as well as verifying the conclusions provided above, we took a14 as a starting compound, and then designed and synthesized a series of chalcones b1–42 bearing methoxy groups at the 2' and 6'-positions of the B-ring, whilst varying the substituents on the A-ring. The cytotoxicities of the resulting chalcones were evaluated in vitro against five human cancer cell lines and other two non-tumoral cell lines, including HepG2, HeLa, MCF-7, A549, SW1990, HMLE and L02, and the results are shown in Table 2.
HepG2 and MCF7 cells were grown in the Eagle’s minimum essential medium with Earle’s balanced salts (MEM-EBSS) medium, HeLa, A549 and L02 cells were grown in Dulbecco’s Modified Eagle Media (DMEM), SW1990 cells were grown in RPMI-1640 medium, and HMLE cell were grown in DMEM/F-12 medium. The media were supplemented with 100 U/mL penicillin, […] streptomycin and 10% fetal bovine serum (FBS), and incubated at 37 °C in a humidified atmosphere containing 5% CO2.
Cells were seeded into 96-well plates (4000 cells/well) and incubated at 37 °C in a humidified 5% CO2 atmosphere. After 24 h, the cells were treated with different concentrations of the compounds for 48 h in triplicate to generate dose-response curves. Cell viability was evaluated using the sulforhodamine B (SRB) assay as previous described. […] Etoposide was used as the positive control.

Data set [7] deals with HeLa cells. Kind of data set: In vitro anti-proliferative SRB assay, HeLa. Format: cell-based, human. Conditions: for IC50: Homo sapiens, HeLa, increasing concentrations up to 30 μM, mean ± SD of at least three independent experiments; for SI (CC50 HMLE/IC50 Hela) / SI (CC50 L02/IC50 Hela): selectivity index; for SI (CC50 HMLE/IC50 Hela): HMLE vs HeLa; for SI (CC50 L02/IC50 Hela): L02 vs HeLa.

For data set [8], the system named is SW1990 cells. Kind of data set: In vitro anti-proliferative SRB assay, SW1990. In kind it is cell-based, human. Conditions: for IC50: Homo sapiens, SW1990, increasing concentrations up to 30 μM, mean ± SD of at least three independent experiments; for SI (CC50 HMLE/IC50 SW1990) / SI (CC50 L02/IC50 SW1990): selectivity index; for SI (CC50 HMLE/IC50 SW1990): HMLE vs SW1990; for SI (CC50 L02/IC50 SW1990): L02 vs SW1990.

Data set [9] can be described thus: Cytotoxicity (SRB) against non-tumoral HMLE cells. Format: cell-based, human. Conditions: human, HMLE cells (non-tumoral human mammary epithelial cells); increasing concentrations up to 100 μM; mean ± SD of at least three independent experiments; read-out: Normal Human Cell Lines, CC50, HMLE.

Compound `CCOc1ccccc1C(=O)/C=C/c1c(OC)cccc1OC` [b8, (E)-1-(2-Ethoxyphenyl)-3-(2,6-dimethoxyphenyl)prop-2-en-1-one] returned a melting point of 48.8 to 50.4 °C. In addition, in data set [1], the IC50 came to 8.56 ± 0.17 µM, the “SI (CC50 HMLE/IC50 MCF7)” value was determined as 0.1 and the “SI (CC50 L02/IC50 MCF7)” value came out at 4.6. Besides, in data set [2], the IC50 is 7.36 ± 0.37 µM, the “SI (CC50 HMLE/IC50 A549)” value is recorded as 0.1 and the “SI (CC50 L02/IC50 A549)” value is listed as 5.4. For the same compound, the CC50 at 48 h in data set [3] is 39.6 ± 7.53 µM. Further, the “SI between the CC50 in L02 and IC50 in tumoral cells” value in data set [4] was “more than 2 fold”. Further, in [5], the IC50 was found to be 4.23 ± 0.09 µM, the “SI (CC50 HMLE/IC50 HepG2)” value is given as 0.2 and the “SI (CC50 L02/IC50 HepG2)” value is listed as 9.3. Further, the IC50 in data set [6] is under 10 µM. In [7], half-maximal inhibition (IC50) required 8.72 ± 0.07 µM, the “SI (CC50 HMLE/IC50 Hela)” value is reported as 0.1 and the “SI (CC50 L02/IC50 Hela)” value came to 4.5. Moreover, in data set [8], the IC50 came to 8.2 ± 0.12 µM, the “SI (CC50 HMLE/IC50 SW1990)” value was 0.1 and the “SI (CC50 L02/IC50 SW1990)” value was determined as 4.8. Moreover, the CC50 at 48 h in [9] is 0.83 ± 0.21 µM.
The compound `COc1cccc(OC)c1/C=C/C(=O)c1cccc(Cl)c1` [b34, (E)-1-(3-Chlorophenyl)-3-(2,6-dimethoxyphenyl)prop-2-en-1-one] returned a melting point of 116.5 to 117.2 °C. For the same compound, in data set [1], inhibition was half-maximal at 22 µM (IC50), the “SI (CC50 HMLE/IC50 MCF7)” value is 0.4 and the “SI (CC50 L02/IC50 MCF7)” value is 2.1. Further, in data set [2], inhibition was half-maximal at 16.1 µM (IC50), the “SI (CC50 HMLE/IC50 A549)” value is given as 0.6 and the “SI (CC50 L02/IC50 A549)” value was 2.9. Also, the CC50 at 48 h in data set [3] came to 46.9 ± 13.9 µM. For the same compound, the “SI between the CC50 in L02 and IC50 in tumoral cells” value in [4] is “more than 2 fold”. In [5], the IC50 was determined as 13.5 µM, the “SI (CC50 HMLE/IC50 HepG2)” value came out at 0.7 and the “SI (CC50 L02/IC50 HepG2)” value amounted to 3.5. Also, in data set [7], the IC50 is 16.6 µM, the “SI (CC50 HMLE/IC50 Hela)” value was 0.6 and the “SI (CC50 L02/IC50 Hela)” value stood at 2.8. Further, in data set [8], the IC50 was found to be 21.4 µM, the “SI (CC50 HMLE/IC50 SW1990)” value is 0.4 and the “SI (CC50 L02/IC50 SW1990)” value is recorded as 2.2. In data set [9], the CC50 at 48 h was 9.42 ± 1.21 µM.
